Experimental data: the supplement of paper PMC4862054

Key:
Conditions in all cases: incubation time: 72 h
CAL-120 [1] = assay: normalised viability (% of control), CellTiter-Blue; higher = more viable cells (100 = DMSO, 0 = benzethonium chloride kill control)
Method: (§1)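 DSRT, CellTiter-Blue viability, 72 h incubation. Signal is normalised to DMSO and benzethonium chloride controls. Value is the normalised response at dose 1.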

HCC1599 [2] = assay: as above
Method: as §1

MDA-MB-468 [3] = assay: as above
Method: as §1

MDA-MB-453 [4] = assay: as above
Method: as §1

MDA-MB-231 [5] = assay: as above
Method: as §1

MDA-MB-436 [6] = assay: as above
Method: as §1

HDQ-P1 [7] = assay: as above
Method: as §1

HCC1143 [8] = assay: as above
Method: as §1

HCC1937 [9] = assay: as above
Method: as §1

Hs578T [10] = assay: as above
Method: as §1

CAL-51 [11] = assay: as above
Method: as §1

BT-474 [12] = assay: as above
Method: as §1

MFM-223 [13] = assay: as above
Method: as §1

DU-4475 [14] = assay: as above
Method: as §1

SK-BR-3 [15] = assay: as above
Method: as §1

CAL-85-1 [16] = assay: as above
Method: as §1

BT-549 [17] = assay: as above
Method: as §1

CAL-148 [18] = assay: as above
Method: as §1

CAL-120 [19] = assay: normalised response (% of control), CellTiter-Glo; higher = more viable cells (100 = DMSO, 0 = benzethonium chloride kill control)
How it was run: (§2)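 The table gives the normalised signal for a single concentration in each entry. Breast cancer cell lines were seeded (20 µl suspension) into 384-well plates holding compound at 5 concentrations in 10-fold steps over a compound-specific 10,000-fold range and incubated 72 h, then read for CellTox Green fluorescence (485/520 nm) and CellTiter-Glo luminescence. Normalisation on each plate used 0.1 % DMSO (100) and a positive kill control (0).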

HCC1599 [20] = assay: as above
How it was run: as §2

MDA-MB-468 [21] = assay: as above
How it was run: as §2

MDA-MB-453 [22] = assay: as above
How it was run: as §2

MDA-MB-231 [23] = assay: as above
How it was run: as §2

MDA-MB-436 [24] = assay: as above
How it was run: as §2

HDQ-P1 [25] = assay: as above
How it was run: as §2

HCC1143 [26] = assay: as above
How it was run: as §2

HCC1937 [27] = assay: as above
How it was run: as §2

Hs578T [28] = assay: as above
How it was run: as §2

MCF-10A = assay: as above
How it was run: as §2

CAL-51 [29] = assay: as above
How it was run: as §2

BT-474 [30] = assay: as above
How it was run: as §2

MFM-223 [31] = assay: as above
How it was run: as §2

DU-4475 [32] = assay: as above
How it was run: as §2

SK-BR-3 [33] = assay: as above
How it was run: as §2

CAL-85-1 [34] = assay: as above
How it was run: as §2

BT-549 [35] = assay: as above
How it was run: as §2

CAL-148 [36] = assay: as above
How it was run: as §2

| SMILES | normalised viability (CAL-120 [1]) [%] | normalised viability (HCC1599 [2]) [%] | normalised viability (MDA-MB-468 [3]) [%] | normalised viability (MDA-MB-453 [4]) [%] | normalised viability (MDA-MB-231 [5]) [%] | normalised viability (MDA-MB-436 [6]) [%] | normalised viability (HDQ-P1 [7]) [%] | normalised viability (HCC1143 [8]) [%] | normalised viability (HCC1937 [9]) [%] | normalised viability (Hs578T [10]) [%] | normalised viability (CAL-51 [11]) [%] | normalised viability (BT-474 [12]) [%] | normalised viability (MFM-223 [13]) [%] | normalised viability (DU-4475 [14]) [%] | normalised viability (SK-BR-3 [15]) [%] | normalised viability (CAL-85-1 [16]) [%] | normalised viability (BT-549 [17]) [%] | normalised viability (CAL-148 [18]) [%] | normalised response (CAL-120 [19]) [%] | normalised response (HCC1599 [20]) [%] | normalised response (MDA-MB-468 [21]) [%] | normalised response (MDA-MB-453 [22]) [%] | normalised response (MDA-MB-231 [23]) [%] | normalised response (MDA-MB-436 [24]) [%] | normalised response (HDQ-P1 [25]) [%] | normalised response (HCC1143 [26]) [%] | normalised response (HCC1937 [27]) [%] | normalised response (Hs578T [28]) [%] | normalised response (MCF-10A) [%] | normalised response (CAL-51 [29]) [%] | normalised response (BT-474 [30]) [%] | normalised response (MFM-223 [31]) [%] | normalised response (DU-4475 [32]) [%] | normalised response (SK-BR-3 [33]) [%] | normalised response (CAL-85-1 [34]) [%] | normalised response (BT-549 [35]) [%] | normalised response (CAL-148 [36]) [%] |
| --- | --- | --- | --- | --- | --- | --- | --- | --- | --- | --- | --- | --- | --- | --- | --- | --- | --- | --- | --- | --- | --- | --- | --- | --- | --- | --- | --- | --- | --- | --- | --- | --- | --- | --- | --- | --- | --- |
| CNC(=O)c1ccccc1Sc1ccc2c(/C=C/c3ccccn3)n[nH]c2c1 [Axitinib] (1 nM) | 77.4 | 92.4 | 102 | 95.6 | 88.4 | 98 | 73.7 | 101 | 110 | 97.6 | 101 | 93.5 | 95.5 | 115 | 104 | 86.8 | 96.2 | 94.9 | 104 | 103 | 105 | 109 | 111 | 95.3 | 105 | 102 | 107 | 98.1 | 101 | 78.7 | 98.6 | 107 | 104 | 109 | 99.8 | 110 | 103 |
| C/C(=C\c1csc(C)n1)[C@@H]1C[C@@H]2O[C@]2(C)CCC[C@H](C)[C@H](O)[C@@H](C)C(=O)C(C)(C)[C@@H](O)CC(=O)N1 [Ixabepilone] (0.1 nM) | 78.8 | 97.3 | 86.7 | 93.5 | 99.1 | 104 | 97.2 | 80.9 | 89.2 | 90 | 110 | 90.4 | 78.8 | 107 | 79.6 | 84 | 90.8 | 105 | 95.5 | 115 | 104 | 127 | 103 | 105 | 100 | 98.5 | 98 | 100 | 107 | 80 | 104 | 103 | 101 | 108 | 97.6 | 98.8 | 99.3 |
| CCNC(=O)CCC/C=C\C[C@@H]1[C@@H](/C=C/[C@@H](O)CCc2ccccc2)[C@H](O)C[C@@H]1O [Bimatoprost] (0.55 nM) | 91.6 | 115 | 109 | 102 | 120 | 111 | 119 | 99 | 103 | 113 | 120 | 110 | 94.9 | 111 | 117 | 94.7 | 103 | 96.5 | 95.8 | 88.5 | 99.3 | 108 | 101 | 98.5 | 92.7 | 92.6 | 99.9 | 93.3 | 91.1 | 90.8 | 95.8 | 94.3 | 102 | 85.8 | 96.6 | 103 | 98.3 |
| CC(C)(C)NC(=O)[C@H]1CC[C@H]2[C@@H]3CC[C@H]4NC(=O)C=C[C@]4(C)[C@H]3CC[C@]12C [Finasteride] (1 nM) | 104 | 91.6 | 105 | 109 | 108 | 98.7 | 133 | 107 | 100 | 108 | 108 | 72.8 | 96.4 | 96.7 | 74.8 | 97 | 93.1 | 110 | 99.5 | 98.8 | 104 | 112 | 107 | 99.5 | 102 | 99 | 96.1 | 104 | 111 | 94.5 | 101 | 102 | 102 | 103 | 96 | 103 | 103 |
| CC(O)(CS(=O)(=O)c1ccc(F)cc1)C(=O)Nc1ccc(C#N)c(C(F)(F)F)c1 (centres undefined) [Bicalutamide] (1 nM) | 96 | 93.8 | 110 | 97.8 | 111 | 99.1 | 100 | 102 | 77 | 112 | 110 | 113 | 94.8 | 112 | 86.9 | 92.2 | 107 | 105 | 107 | 109 | 107 | 91.7 | 104 | 104 | 102 | 105 | 101 | 99 | 107 | 114 | 110 | 107 | 99 | 106 | 104 | 111 | 109 |
| CC(C)C[C@H](NC(=O)[C@@H](COC(C)(C)C)NC(=O)[C@H](Cc1ccc(O)cc1)NC(=O)[C@H](CO)NC(=O)[C@H](Cc1c[nH]c2ccccc12)NC(=O)[C@H](Cc1cnc[nH]1)NC(=O)[C@@H]1CCC(=O)N1)C(=O)N[C@@H](CCCNC(=N)N)C(=O)N1CCC[C@H]1C(=O)NNC(N)=O [Goserelin] (1 nM) | 104 | 114 | 91.7 | 102 | 103 | 102 | 111 | 94.3 | 86.5 | 106 | 110 | 82.1 | 96 | 99.3 | 93.3 | 87.7 | 93.1 | 109 | 99.6 | 96 | 101 | 108 | 103 | 102 | 97.3 | 96.7 | 92.7 | 96.1 | 94.8 | 122 | 99.2 | 96.7 | 95.1 | 96.8 | 96.4 | 105 | 84.5 |
| Nc1ccn([C@@H]2O[C@H](CO)[C@@H](O)C2(F)F)c(=O)n1 [Gemcitabine] (0.1 nM) | 96.5 | 89.4 | 100 | 109 | 94.6 | 108 | 111 | 101 | 76.1 | 114 | 105 | 87 | 101 | 93.5 | 102 | 96.8 | 108 | 103 | 93.6 | 97.4 | 95.8 | 107 | 94.5 | 102 | 95.1 | 92.6 | 95.8 | 106 | 99.7 | 101 | 97 | 94.5 | 99.9 | 93.4 | 94.2 | 98.4 | 96 |
